Consider three molecules from article PMC9026285 (ACS Chemical Neuroscience, 2022).

Data set [1] relates to brain protein and α-synuclein O-GlcNAcylation. Put plainly: O-protein and O-GlcNAcylated α-synuclein. To be noted: Line 61 mice; for increase in brain protein O-GlcNAcylation (mean): 24 weeks, t = 4 h post-dose.
Data set [2] relates to GFAP (astrogliosis), pS129 and human α-synuclein. The experiment in a line: GFAP immunoassay and histopathology in Line 61 mice. The format is in vivo, mouse. To be noted: hippocampus, 24 weeks.
Data set [3] relates to HexA/B from human placenta. Put plainly: Hexosaminidase A/B assay. The format is biochemical.
Data set [4] addresses T1, recombinant human HexA (Homo sapiens, UniProt P06865).
T1 sequence (P06865 89-529): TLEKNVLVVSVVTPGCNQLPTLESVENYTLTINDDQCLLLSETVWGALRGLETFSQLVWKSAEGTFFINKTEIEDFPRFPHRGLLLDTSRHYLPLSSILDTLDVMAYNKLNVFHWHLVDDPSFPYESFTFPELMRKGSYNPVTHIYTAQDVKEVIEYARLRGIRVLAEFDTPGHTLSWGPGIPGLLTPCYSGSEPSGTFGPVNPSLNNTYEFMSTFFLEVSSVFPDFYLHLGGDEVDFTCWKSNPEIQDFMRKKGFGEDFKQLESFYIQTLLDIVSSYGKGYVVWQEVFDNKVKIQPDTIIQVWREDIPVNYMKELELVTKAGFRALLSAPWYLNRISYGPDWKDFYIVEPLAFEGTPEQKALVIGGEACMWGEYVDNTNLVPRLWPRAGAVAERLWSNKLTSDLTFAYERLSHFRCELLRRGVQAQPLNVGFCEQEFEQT
The experiment in a line: Hexosaminidase A assay. Type of data set: biochemical.

Data set [5] deals with hTauP301L mice. Put plainly: Chronic. Type of data set: in vivo, mouse. Conditions: P301L mice.
Data set [6] can be described thus: Half-life in mice. Conditions: mouse, in vivo.
Data set [7] has as its system protein O-GlcNAcylation in human PBMC. The experiment in a line: In vitro PBMC cell-based assay, human PBMC. Conditions: 4 h, read-out: EC50, protein O-GlcNAcylation in human PBMC.
Data set [8] deals with Line 61 α-synuclein transgenic mice. The experiment in a line: Beam walk test in Line 61 α-synuclein transgenic mice, chronic treatment. Type of data set: in vivo, mouse. To be noted: Line 61 mice, 30 and 100 mg/kg/day oral, after 12 weeks, persisted to week 24.
The conditions of data set [9]: cited from earlier work.
[10] abbreviates: up to the highest concentration tested (30 μM).

For orientation: half-life means the time needed for the level to fall by half in the phase considered. For orientation: EC50 means the concentration at which the effect is half-maximal. Turning to `CC(=O)Nc1nnc(N2CCN([C@@H](C)c3ccc4c(c3)OCO4)CC2)s1` [ASN90, (S)-N-(5-(4-(1-(benzo[d][1,3]dioxol-5-yl)ethyl)piperazin-1-yl)-1,3,4-thiadiazol-2-yl)acetamide], in [1] (30 mg/kg/day), the “increase in brain protein O-GlcNAcylation (mean)” value is “+78%”. Also, in data set [1] (100 mg/kg, chronic, vs vehicle), the “increase of O-GlcNAcylated α-synuclein as % of total” value is given as 1.7 fold. The “increase in brain protein O-GlcNAcylation (mean)” value in [1] (100 mg/kg/day) was “+105%”. Besides, in data set [2], the “object size for pS129 α-synuclein immunoreactivity” value was “significant decrease” and the “total α-synuclein immunoreactivity” value is on record as “unchanged”. Moreover, in [3] (setting [10]), the “inhibitory activity on HexA/B” value was “no inhibitory activity”. Also, in data set [4] (setting [10]), the “inhibitory activity on HexA” value was “no inhibitory activity”. Also, in [5] (30 and 100 mg/kg/day oral, 6 months), the survival entry is “significantly increased survival”. In [5] (brainstem and hippocampus, chronic treatment), the “effect on pathogenic tau pS202/205 (AT8)” value is “no statistically significant treatment effects”. The same molecule gave a half-life in [6] of 2.8 h. In data set [7], the EC50 turned out to be 209 nM. In addition, the “motor performance in three types of beam walk (slips)” value in [8] was “highly significant treatment benefit”.
Consider `CC(=O)N[C@H]1/C(=N/OC(=O)Nc2ccccc2)O[C@H](CO)[C@@H](O)[C@@H]1O` [PUGNAc, reference compound], for which the values for the IC50 in [3] (read-out: IC50 HexA/B) and in [4] were 31 nM and 490 nM, respectively.
As to `CCN=C1N[C@@H]2[C@@H](O)[C@H](O)[C@@H](CO)O[C@@H]2S1` [Thiamet G], the brain-to-plasma ratio in data set [9] was 0.1.
